# Measured values as given in patent US12544431B2, “Peptides for the treatment of cancer and/or metastasis” (BCN PEPTIDES, S.A., priority 2019, dated 2026).
# Entries after “also recorded” stand apart in the source; their conditions may differ. Marks after values point to notes of the source that are not given here. Where a SMILES comes first, the peptide text is derived from it. [ ]: non-standard residue; d: D form. Phe(2,4,6-Me3) = Cc1cc(C)c(C[C@H](N)C(=O)O)c(C)c1; pGlu = O=C1CC[C@@H](C(=O)O)N1
# What was measured:
# [1] = tested on: RD rhabdomyosarcoma cells; assay: Rhabdomyosarcoma metastatic mice model (RD cells i.v. in tail vein); format: in vivo, SCID/Beige mice; conditions: for event-free survival vs vehicle group (in words): 27-week study; for Absence of metastases, number of mice / Absence of metastases, percentage of mice / Presence of metastases (%), percentage of mice / Presence of metastases, number of mice: 27 weeks; for body weight, treated vs vehicle-treated mice (in words): along the 27-week study
# Method: SCID/Beige female mice aged of 5 weeks were administered subcutaneously (s.c.) at day −1 with the first dose of treatment i.e. the vehicle (PBS, Phosphate buffered saline) or the peptides. On day 0, mice were injected intravenously (i.v.) in the tail vein with 2×10^6 RD rhabdomyosarcoma cells.
# Body weight was evaluated twice per week for 27 weeks. Overall survival and event-free survival were determined. At necropsy, the total number of metastases were quantified and the number of metastases per mice and their localization were also reported.
# [2] = tested on: MDA-MB-231 breast cancer cells; assay: Transwell invasion assay, MDA-MB-231 cells; format: cell-based
# Method: (§1) 10^5 RH30 or RD cells were plated in the upper chamber of a Matrigel-coated transwell (Corning) in 0.1 mL medium without FBS. Cells were previously incubated with different concentrations (0 nM, 100 nM, 200 nM, 500 nM and 1000 nM) of the peptides and peptide dimer for 48 hours, being also present in the medium during the cell invasion assay. In the lower chamber, 0.6 mL of medium with FBS was added. Cells were incubated at 37° ° C. for 24 hours.
# (§2) After that, cells were fixed with 4% paraformaldehyde (Sigma) for 10 minutes, followed by washing with PBS. After removal of the Matrigel and remaining cells from the upper face of the membrane with a cotton swab, the cells present on the lower face were stained with a Hoechst dilution (Sigma) and were counted (5 fields for each well) with an inverted fluorescence microscope Nikon with a 10× objective. All experiments were made in triplicate. In Table 6 the % Invasiveness represents the mean percentage of invasive cells with respect to their controls.
# (§3) The transwell assay with neuroblastoma cell lines (CHLA-90, BE(2)-C and SK—N-BE(2)-C)) and breast cancer cell lines (MDA-MB-231 and MDA-MB-468) was performed at the same conditions detailed for determining the % of invasiveness in rhabdomyosarcoma cells.
# [3] = tested on: MDA-MB-468 breast cancer cells; assay: Transwell invasion assay, MDA-MB-468 cells; format: cell-based
# Method: as §1, §2, §3
# [4] = tested on: RD rhabdomyosarcoma cells; assay: Matrigel-coated transwell invasion assay, RD cells; format: cell-based; conditions: % invasive cells vs non-treated control
# Method: as §1, §2
# [5] = In vitro stability, half-life in human plasma; format: in vitro ADME; conditions: 90% human plasma, 37° C., RP-HPLC; read-out: t½ (hours) in human plasma (converted)
# Method: The peptides and peptide dimer synthesized and prepared in accordance with Example 1 were dissolved in water at a concentration of 6 mg/mL and warmed up to 37° C.
# Human plasma was obtained as a lyophilized solid (K3 EDTA Plasma, BBI Solutions, code S112-1), reconstituted with sterile 0.9% sodium chloride solution and stored at −20° C. Human plasma was thawed and incubated at 37° C. before use.
# The peptides and peptide dimer were incubated in 90% human plasma at 37° C. for different times and then precipitated with two volume equivalents of methanol. The samples were cooled in an acetone-carbon dioxide bath for a few seconds and centrifuged for 12 minutes at 4° C. at approximately 10,000 rpm. The supernatant was filtered with a 0.45 μm PVDF filter and analyzed in triplicate by RP-HPLC using an isocratic method (Eluent A=0.1% TFA in water; Eluent B=0.07% TFA in ACN, Column=Kromasil C8, 100 Å, 5 μm, 250×4.6 mm, Flow=1 mL/min, Wavelength: 220 nm, Injection volume=20 μL, Temperature=60° C.). The disappearance of the compound was determined in relation to the area of the initial time to calculate its half-life.
# [6] = tested on: SK-N-BE(2)-C neuroblastoma cells; assay: Transwell invasion assay, SK-N-BE(2)-C cells; format: cell-based
# Method: as §1, §2, §3
# [7] = tested on: BE(2)-C neuroblastoma cells; assay: Transwell invasion assay, BE(2)-C cells; format: cell-based
# Method: as §1, §2
# (§4) The transwell assay with CHLA-90 and BE(2)-C cell lines was done following the same conditions detailed for determining the % of invasiveness in rhabdomyosarcoma cells.
# as §3
# [8] = tested on: BE(2)-C neuroblastoma cells; assay: Neuroblastoma metastatic mice model (BE(2)-C cells i.v. in tail vein); format: in vivo, SCID/Beige mice; conditions: for Absence of metastases, number of mice / Absence of metastases, percentage of mice / Presence of metastases (%), percentage of mice / Presence of metastases, number of mice: 13 weeks; for event-free survival, percentage of mice / event-free survival, number of mice: 13-week study; for event-free survival, number of mice: of 9 mice
# Method: SCID/Beige female mice aged 5 weeks were administered subcutaneously (s.c.) at day −1 with the first dose of treatment, this is the vehicle (PBS) or the peptide SEQ ID NO: 7-NH2 at doses of 1 mg/kg and 2 mg/kg. On day 0, mice were injected intravenously (i.v.) in the tail vein with 2×10^5 BE(2)-C neuroblastoma cells. Afterwards, mice were treated s.c. three times per week (every 2-3 days) for 13 weeks with vehicle PBS (n=8) and SEQ ID NO: 7—NH2 1 mg/kg (n=9) and 2 mg/kg (n=9).
# [9] = tested on: CHLA-90 neuroblastoma cells; assay: Transwell invasion assay, CHLA-90 cells; format: cell-based
# Method: as §1, §2, §4, §3
# [10] = tested on: RH30 rhabdomyosarcoma cells; assay: Matrigel-coated transwell invasion assay, RH30 cells; format: cell-based; conditions: for % Invasiveness RH30: % invasive cells vs non-treated control
# Method: as §1, §2
# [11] = 0.5 mg/kg s.c. three times per week
# [12] = 2 mg/kg s.c. three times per week
# [13] = 1 mg/kg s.c. three times per week
compound,measurement,setting,value
"CSCC[C@H](NC(=O)[C@H](CO)NC(=O)[C@H](CC(N)=O)NC(=O)[C@H](CO)NC(=O)[C@H](CO)NC(=O)[C@H](CC(=O)O)NC(=O)[C@H](CCCNC(=N)N)NC(=O)[C@H](CCCCN)NC(=O)[C@@H]1CCC(=O)N1)C(=O)N[C@@H](CC(=O)O)C(=O)N[C@@H](CC(C)C)C(=O)N1CCC[C@H]1C(=O)N[C@@H](CCC(=O)O)C(=O)N[C@@H](Cc1c(C)cc(C)cc1C)C(=O)N[C@@H](CCCCN)C(N)=O [SEQ ID NO: 7-NH2, Pyr-Lys-Arg-Asp-Ser-Ser-Asn-Ser-Met-Asp-Leu-Pro-Glu-Msa-Lys-NH2] ([pGlu]KRDSSNSMDLPE[Phe(2,4,6-Me3)]K-NH2)",event-free survival vs vehicle group (in words),[1]; 0.5 mg/kg (lower dose),did not show statistically significant difference; also recorded: did not show a significant effect
same,"Absence of metastases, number of mice",[1]; [11],1
same,"Absence of metastases, percentage of mice",[1]; [11],17%
same,"Presence of metastases (%), percentage of mice",[1]; [11],83%
same,"Presence of metastases, number of mice",[1]; [11],5
same,"body weight, treated vs vehicle-treated mice (in words)",[1]; 0.5 mg/kg,vehicle-treated mice showed a statistically significant lower body weight
same,reduction in metastases formation,"[1]; 0.5 mg/kg, vs PBS-treated mice",~15%
same,number of metastases per mouse vs vehicle (in words),"[1]; 2 mg/kg (higher dose), at necropsy",statistically reduced the formation of metastases per mouse; also recorded: efficacious in the reduction of the number of metastases
same,"Absence of metastases, number of mice",[1]; [12],5
same,"Absence of metastases, percentage of mice",[1]; [12],71%
same,"Presence of metastases (%), percentage of mice",[1]; [12],29%
same,"Presence of metastases, number of mice",[1]; [12],2
same,event-free survival vs vehicle group (in words),"[1]; 2 mg/kg, Log-rank",significant difference
same,"body weight, treated vs vehicle-treated mice (in words)",[1]; 2 mg/kg,vehicle-treated mice showed a statistically significant lower body weight
same,% Invasiveness MDA-MB-231,[2]; 100 nM peptide,111.82%
same,% Invasiveness MDA-MB-231,[2]; 200 nM peptide,109.71%
same,% Invasiveness MDA-MB-231,[2]; 500 nM peptide,99.97%
same,% Invasiveness MDA-MB-231,[2]; 1000 nM peptide (highest treatment dose),53.69%
same,% Invasiveness MDA-MB-231,"[2]; 1000 nM peptide (highest treatment dose), listed as SEQ ID NO: 7—NH2",moderate reduction
same,% Invasiveness MDA-MB-468,[3]; 100 nM peptide,96.71%
same,% Invasiveness MDA-MB-468,[3]; 200 nM peptide,57.65%
same,% Invasiveness MDA-MB-468,[3]; 500 nM peptide,54.53* %
same,% Invasiveness MDA-MB-468,[3]; 1000 nM peptide,48.39* %
same,effect on MDA-MB-468 invasiveness (in words),"[3]; under treatment, concentration not given",clear reduction of invasiveness
same,% Invasiveness RD,[4]; 100 nM peptide,30.82* %
same,% Invasiveness RD,"[4]; 100 nM peptide, listed as SEQ ID NO: 7—NH2",below 50%
same,% Invasiveness RD,[4]; 200 nM peptide,22.94* %
same,% Invasiveness RD,[4]; 500 nM peptide,17.60* %
same,% Invasiveness RD,[4]; 1000 nM peptide,19.68* %
same,half-life at 0.6 mg/mL,[5],40.5 h
same,% Invasiveness SK-N-BE(2)-C,[6]; 100 nM peptide,84.35%
same,% Invasiveness SK-N-BE(2)-C,[6]; 200 nM peptide,91.84%
same,% Invasiveness SK-N-BE(2)-C,[6]; 500 nM peptide,73.31* %
same,% Invasiveness SK-N-BE(2)-C,"[6]; 500 nM peptide, listed as SEQ ID NO: 7—NH2",efficacious in inhibiting invasiveness; also recorded: significant reduction
same,% Invasiveness SK-N-BE(2)-C,[6]; 1000 nM peptide,52.70* %
same,% Invasiveness BE(2)-C,[7]; 100 nM peptide,95.15%
same,% Invasiveness BE(2)-C,[7]; 200 nM peptide,60.70* %
same,% Invasiveness BE(2)-C,[7]; 500 nM peptide,56.72* %
same,% Invasiveness BE(2)-C,[7]; 1000 nM peptide,33.21* %
same,effect on BE(2)-C cell invasiveness (in words),[7]; concentration not given,significant reduction in cell invasiveness
same,"Absence of metastases, number of mice",[8]; [13],2
same,"Absence of metastases, percentage of mice",[8]; [13],22%
same,"Presence of metastases (%), percentage of mice",[8]; [13],78%
same,"Presence of metastases, number of mice",[8]; [13],7
same,"event-free survival, percentage of mice",[8]; 1 mg/kg,22%
same,"event-free survival, number of mice",[8]; 1 mg/kg,2
same,"Absence of metastases, number of mice",[8]; [12],5
same,"Absence of metastases, percentage of mice",[8]; [12],56%
same,"Presence of metastases (%), percentage of mice",[8]; [12],44%
same,"Presence of metastases, number of mice",[8]; [12],4
same,"event-free survival, percentage of mice",[8]; 2 mg/kg,56%
same,"event-free survival, number of mice",[8]; 2 mg/kg,5
same,% Invasiveness CHLA-90,[9]; 100 nM peptide,94.31%
same,% Invasiveness CHLA-90,[9]; 200 nM peptide,52.37%
same,% Invasiveness CHLA-90,[9]; 500 nM peptide,38.94%
same,% Invasiveness CHLA-90,[9]; 1000 nM peptide,20.37* %
same,effect on CHLA-90 cell invasiveness (in words),[9]; concentration not given,significant reduction in cell invasiveness
same,% Invasiveness RH30,[10]; 100 nM peptide,121.38%
same,% Invasiveness RH30,[10]; 200 nM peptide,77.38%
same,% Invasiveness RH30,[10]; 500 nM peptide,65.59%
same,% Invasiveness RH30,[10]; 1000 nM peptide,63.23%
same,effect on % invasiveness of RH30 cell line (in words),[10]; concentration not stated (100-1000 nM tested),diminishing % invasiveness without reaching significance
